Each block holds one molecule with its values, some of them ahead of it.
Columns and labels:
[1] = target: Mitogen-activated protein kinase 14 (Homo sapiens, UniProt Q16539); assay: Selectivity interaction (KinomeScan (DiscoverX)) EUB0000655a MAPK14; conditions: at 10 µM
[2] = target: Mitogen-activated protein kinase kinase kinase 1 (Homo sapiens, UniProt Q13233); assay: Selectivity interaction (KinomeScan (DiscoverX)) EUB0001079a MAP3K1; conditions: at 1 µM
[3] = target: Myosin light chain kinase 2, skeletal/cardiac muscle (Homo sapiens) (UniProt Q9H1R3); assay: Selectivity interaction (KinomeScan (DiscoverX)) EUB0000045b MYLK2
Myosin light chain kinase 2, skeletal/cardiac muscle (Homo sapiens), sequence (Q9H1R3 whole entry): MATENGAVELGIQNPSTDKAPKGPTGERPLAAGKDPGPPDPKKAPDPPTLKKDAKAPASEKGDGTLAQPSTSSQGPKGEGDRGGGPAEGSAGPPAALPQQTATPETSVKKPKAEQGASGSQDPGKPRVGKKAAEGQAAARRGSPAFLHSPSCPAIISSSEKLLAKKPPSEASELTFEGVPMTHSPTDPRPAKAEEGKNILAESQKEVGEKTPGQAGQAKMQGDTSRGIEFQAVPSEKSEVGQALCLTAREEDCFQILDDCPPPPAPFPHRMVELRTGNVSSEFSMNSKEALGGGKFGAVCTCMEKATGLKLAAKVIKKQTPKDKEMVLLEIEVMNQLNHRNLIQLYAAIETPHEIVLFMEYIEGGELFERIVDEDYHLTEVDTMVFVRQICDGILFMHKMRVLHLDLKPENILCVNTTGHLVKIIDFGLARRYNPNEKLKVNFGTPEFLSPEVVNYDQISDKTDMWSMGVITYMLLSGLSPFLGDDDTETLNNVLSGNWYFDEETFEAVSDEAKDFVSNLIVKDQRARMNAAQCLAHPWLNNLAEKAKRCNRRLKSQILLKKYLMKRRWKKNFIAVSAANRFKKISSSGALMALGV

[4] = target: Vascular endothelial growth factor receptor 2 (Homo sapiens, UniProt P35968); assay: Selectivity interaction (Kinase panel (enzymatic assay)) EUB0000595a KDR
[5] = target: Mitogen-activated protein kinase 9 (Homo sapiens, UniProt P45984); assay: Selectivity interaction (ActivX KiNativ screen (kinase selectivity in THP-1 cell lysates)) EUB0000639a MAPK9; format: subcellular; conditions: lysate, at 0.04 µM
Mitogen-activated protein kinase 9, sequence (P45984 whole entry, looked up): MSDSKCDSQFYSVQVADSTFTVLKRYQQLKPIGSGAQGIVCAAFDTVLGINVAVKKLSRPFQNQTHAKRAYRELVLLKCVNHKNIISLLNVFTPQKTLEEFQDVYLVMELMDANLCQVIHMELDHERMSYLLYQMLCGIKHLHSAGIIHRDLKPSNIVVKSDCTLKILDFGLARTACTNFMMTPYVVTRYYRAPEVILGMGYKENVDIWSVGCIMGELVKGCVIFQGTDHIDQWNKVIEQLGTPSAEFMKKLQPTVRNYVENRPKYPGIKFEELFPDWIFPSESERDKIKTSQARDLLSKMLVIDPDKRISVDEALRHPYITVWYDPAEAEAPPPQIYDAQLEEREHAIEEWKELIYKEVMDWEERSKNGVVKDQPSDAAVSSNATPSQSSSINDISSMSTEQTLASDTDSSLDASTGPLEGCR

[6] = target: Calcium/calmodulin-dependent protein kinase kinase 2 (Homo sapiens) (UniProt Q96RR4); assay: Selectivity interaction (ProQinase) EUB0000171b CAMKK2
Calcium/calmodulin-dependent protein kinase kinase 2 (Homo sapiens), sequence (Q96RR4 2-588 limits assumed): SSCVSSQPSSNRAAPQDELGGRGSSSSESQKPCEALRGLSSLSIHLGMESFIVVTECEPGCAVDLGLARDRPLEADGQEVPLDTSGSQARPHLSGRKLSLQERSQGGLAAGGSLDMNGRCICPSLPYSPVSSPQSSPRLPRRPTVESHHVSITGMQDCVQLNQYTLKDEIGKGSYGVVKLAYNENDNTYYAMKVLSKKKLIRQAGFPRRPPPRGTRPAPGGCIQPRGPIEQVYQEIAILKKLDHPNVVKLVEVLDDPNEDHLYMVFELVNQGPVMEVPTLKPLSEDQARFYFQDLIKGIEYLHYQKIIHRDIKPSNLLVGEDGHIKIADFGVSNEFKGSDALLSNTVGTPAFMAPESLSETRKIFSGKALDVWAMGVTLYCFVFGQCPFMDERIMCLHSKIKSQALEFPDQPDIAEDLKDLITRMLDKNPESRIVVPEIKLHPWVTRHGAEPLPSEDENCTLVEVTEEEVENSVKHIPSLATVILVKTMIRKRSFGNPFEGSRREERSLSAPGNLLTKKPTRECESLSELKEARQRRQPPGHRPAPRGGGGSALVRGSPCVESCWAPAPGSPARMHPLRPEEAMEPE

[7] = target: T1, Ankyrin repeat and protein kinase domain-containing protein 1 (Homo sapiens) (UniProt Q8NFD2); assay: Selectivity interaction (KinomeScan (DiscoverX)) EUB0001049a ANKK1; conditions: at 1 µM
T1 sequence (whole entry): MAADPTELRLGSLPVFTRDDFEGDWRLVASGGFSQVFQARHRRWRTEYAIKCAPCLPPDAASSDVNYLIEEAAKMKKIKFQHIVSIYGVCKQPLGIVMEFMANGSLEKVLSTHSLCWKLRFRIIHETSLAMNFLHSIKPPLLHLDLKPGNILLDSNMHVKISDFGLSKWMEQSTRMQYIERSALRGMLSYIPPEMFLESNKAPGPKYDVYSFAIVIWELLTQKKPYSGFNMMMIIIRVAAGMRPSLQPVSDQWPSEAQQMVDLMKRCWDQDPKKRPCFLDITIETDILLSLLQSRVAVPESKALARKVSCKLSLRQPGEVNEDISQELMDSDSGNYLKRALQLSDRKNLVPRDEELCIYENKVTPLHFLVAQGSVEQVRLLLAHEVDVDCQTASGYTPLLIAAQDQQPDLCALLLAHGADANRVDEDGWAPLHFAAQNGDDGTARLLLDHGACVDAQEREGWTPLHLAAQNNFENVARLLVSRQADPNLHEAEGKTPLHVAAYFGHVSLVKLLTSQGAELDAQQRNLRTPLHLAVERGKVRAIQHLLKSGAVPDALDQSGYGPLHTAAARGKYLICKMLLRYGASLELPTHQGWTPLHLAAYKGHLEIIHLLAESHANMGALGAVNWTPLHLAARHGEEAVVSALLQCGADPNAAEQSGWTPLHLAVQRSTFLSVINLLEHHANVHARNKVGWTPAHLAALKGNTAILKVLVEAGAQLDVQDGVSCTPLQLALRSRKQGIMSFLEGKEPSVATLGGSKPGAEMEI

[8] = target: T2, Inhibitor of nuclear factor kappa-B kinase subunit beta (Homo sapiens) (UniProt O14920); assay: Selectivity interaction (KinomeScan (DiscoverX)) EUB0001049a IKBKB; conditions: at 1 µM
T2 sequence (whole entry): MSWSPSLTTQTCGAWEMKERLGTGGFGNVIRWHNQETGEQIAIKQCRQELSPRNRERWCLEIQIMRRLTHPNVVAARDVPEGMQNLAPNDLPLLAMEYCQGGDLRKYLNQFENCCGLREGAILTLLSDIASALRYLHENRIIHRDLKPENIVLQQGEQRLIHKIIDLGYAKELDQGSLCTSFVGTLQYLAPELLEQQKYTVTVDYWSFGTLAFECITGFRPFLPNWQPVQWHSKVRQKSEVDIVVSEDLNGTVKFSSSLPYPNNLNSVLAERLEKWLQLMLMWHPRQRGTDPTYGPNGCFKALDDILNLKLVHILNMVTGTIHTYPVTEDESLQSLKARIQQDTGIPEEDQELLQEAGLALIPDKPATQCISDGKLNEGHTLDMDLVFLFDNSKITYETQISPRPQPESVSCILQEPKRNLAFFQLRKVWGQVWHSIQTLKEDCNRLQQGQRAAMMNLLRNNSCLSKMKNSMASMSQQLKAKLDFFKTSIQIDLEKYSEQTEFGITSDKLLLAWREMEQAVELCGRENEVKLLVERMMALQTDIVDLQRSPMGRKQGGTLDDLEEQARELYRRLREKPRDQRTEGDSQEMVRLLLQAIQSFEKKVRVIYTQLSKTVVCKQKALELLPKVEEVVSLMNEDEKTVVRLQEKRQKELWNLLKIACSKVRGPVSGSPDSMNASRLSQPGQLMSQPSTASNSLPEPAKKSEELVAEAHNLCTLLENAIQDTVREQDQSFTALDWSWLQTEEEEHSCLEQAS

[9] = target: Casein kinase I isoform delta (Homo sapiens, UniProt P48730); assay: Selectivity interaction (KinomeScan (DiscoverX)) EUB0000666a CSNK1D; conditions: at 10 µM
Casein kinase I isoform delta, sequence (P48730 whole entry, looked up, canonical isoform): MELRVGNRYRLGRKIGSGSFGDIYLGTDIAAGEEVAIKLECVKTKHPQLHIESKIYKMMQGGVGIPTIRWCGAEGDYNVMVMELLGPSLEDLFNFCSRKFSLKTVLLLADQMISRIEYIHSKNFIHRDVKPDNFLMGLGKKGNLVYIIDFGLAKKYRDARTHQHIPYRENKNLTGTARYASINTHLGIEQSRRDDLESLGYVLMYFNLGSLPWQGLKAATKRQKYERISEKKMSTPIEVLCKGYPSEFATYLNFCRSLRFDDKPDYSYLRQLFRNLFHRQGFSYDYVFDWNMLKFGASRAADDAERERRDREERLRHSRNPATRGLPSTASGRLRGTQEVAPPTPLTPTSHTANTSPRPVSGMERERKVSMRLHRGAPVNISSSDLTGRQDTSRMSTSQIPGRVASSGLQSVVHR

[10] = target: T3, Myotonin-protein kinase (Homo sapiens) (UniProt Q09013); assay: Selectivity interaction (KinomeScan (DiscoverX)) EUB0000092b DMPK; conditions: at 10 µM
T3 sequence (whole entry): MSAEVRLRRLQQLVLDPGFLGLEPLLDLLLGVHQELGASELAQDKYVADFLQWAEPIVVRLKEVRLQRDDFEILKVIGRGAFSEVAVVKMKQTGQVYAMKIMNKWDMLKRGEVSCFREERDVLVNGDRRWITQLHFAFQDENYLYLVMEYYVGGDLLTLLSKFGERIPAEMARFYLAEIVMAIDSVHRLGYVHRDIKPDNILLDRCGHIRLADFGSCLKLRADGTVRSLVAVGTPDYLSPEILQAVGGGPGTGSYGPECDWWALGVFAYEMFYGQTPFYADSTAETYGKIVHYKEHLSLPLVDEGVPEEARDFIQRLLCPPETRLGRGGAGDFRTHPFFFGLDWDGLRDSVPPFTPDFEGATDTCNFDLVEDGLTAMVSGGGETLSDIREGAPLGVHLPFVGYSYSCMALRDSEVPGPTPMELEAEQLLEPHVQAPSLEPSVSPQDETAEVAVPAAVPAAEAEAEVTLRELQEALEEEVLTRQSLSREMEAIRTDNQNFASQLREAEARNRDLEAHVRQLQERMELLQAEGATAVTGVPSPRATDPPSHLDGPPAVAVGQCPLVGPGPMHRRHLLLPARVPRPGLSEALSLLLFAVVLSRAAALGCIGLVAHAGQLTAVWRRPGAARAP

[11] = target: CDK18/Cyclin Y (Homo sapiens) (UniProt Q07002+Q8ND76); assay: Selectivity interaction (Kinase panel (Z-LYTE Assay)) EUB0001632a CDK18; format: protein-complex assay; conditions: at 10 µM
[12] = target: Mitogen-activated protein kinase kinase kinase 9 (Homo sapiens) (UniProt P80192); assay: Selectivity interaction (KinomeScan (DiscoverX)) EUB0000695a MAP3K9; conditions: at 100 nM
Mitogen-activated protein kinase kinase kinase 9 (Homo sapiens), sequence (P80192 whole entry, looked up): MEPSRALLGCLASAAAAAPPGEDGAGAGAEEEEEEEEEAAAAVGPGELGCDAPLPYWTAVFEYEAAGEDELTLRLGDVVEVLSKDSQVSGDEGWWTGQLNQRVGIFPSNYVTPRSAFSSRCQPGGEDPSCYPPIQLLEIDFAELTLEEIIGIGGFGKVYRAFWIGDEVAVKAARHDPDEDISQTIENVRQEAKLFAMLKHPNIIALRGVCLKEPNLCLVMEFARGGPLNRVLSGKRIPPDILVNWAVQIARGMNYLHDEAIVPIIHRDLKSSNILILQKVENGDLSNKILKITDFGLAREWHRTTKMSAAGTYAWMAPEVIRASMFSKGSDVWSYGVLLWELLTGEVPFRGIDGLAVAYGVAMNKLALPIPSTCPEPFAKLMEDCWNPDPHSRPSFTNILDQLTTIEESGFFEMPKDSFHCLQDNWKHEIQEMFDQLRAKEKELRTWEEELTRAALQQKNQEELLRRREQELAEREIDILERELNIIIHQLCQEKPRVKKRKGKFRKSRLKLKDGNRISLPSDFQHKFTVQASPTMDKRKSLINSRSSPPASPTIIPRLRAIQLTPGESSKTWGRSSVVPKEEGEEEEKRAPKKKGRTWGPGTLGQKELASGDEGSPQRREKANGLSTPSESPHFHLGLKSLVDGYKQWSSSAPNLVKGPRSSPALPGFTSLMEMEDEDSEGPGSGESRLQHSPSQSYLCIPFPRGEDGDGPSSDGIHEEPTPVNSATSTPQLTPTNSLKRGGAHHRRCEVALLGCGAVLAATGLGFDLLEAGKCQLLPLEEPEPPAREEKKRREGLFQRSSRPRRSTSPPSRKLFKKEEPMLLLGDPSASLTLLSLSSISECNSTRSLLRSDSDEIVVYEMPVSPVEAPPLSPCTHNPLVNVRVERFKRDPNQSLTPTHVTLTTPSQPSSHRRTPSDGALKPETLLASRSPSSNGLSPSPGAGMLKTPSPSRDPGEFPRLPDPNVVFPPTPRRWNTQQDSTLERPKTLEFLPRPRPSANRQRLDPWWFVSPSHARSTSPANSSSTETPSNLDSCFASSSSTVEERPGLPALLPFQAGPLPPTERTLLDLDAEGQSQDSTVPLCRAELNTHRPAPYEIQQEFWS

Mitogen-activated protein kinase 14, sequence (Q16539 whole entry): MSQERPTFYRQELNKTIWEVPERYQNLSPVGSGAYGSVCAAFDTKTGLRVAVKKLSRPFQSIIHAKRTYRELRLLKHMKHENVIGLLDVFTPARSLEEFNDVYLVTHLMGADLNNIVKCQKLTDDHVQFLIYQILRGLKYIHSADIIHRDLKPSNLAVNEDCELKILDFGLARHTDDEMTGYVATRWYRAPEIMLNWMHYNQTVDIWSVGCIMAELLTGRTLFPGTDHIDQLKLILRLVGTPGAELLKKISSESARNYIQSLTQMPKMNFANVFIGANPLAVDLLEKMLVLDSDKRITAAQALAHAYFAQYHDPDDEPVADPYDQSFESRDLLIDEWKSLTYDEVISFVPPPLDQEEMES
Mitogen-activated protein kinase kinase kinase 1, sequence (Q13233 whole entry): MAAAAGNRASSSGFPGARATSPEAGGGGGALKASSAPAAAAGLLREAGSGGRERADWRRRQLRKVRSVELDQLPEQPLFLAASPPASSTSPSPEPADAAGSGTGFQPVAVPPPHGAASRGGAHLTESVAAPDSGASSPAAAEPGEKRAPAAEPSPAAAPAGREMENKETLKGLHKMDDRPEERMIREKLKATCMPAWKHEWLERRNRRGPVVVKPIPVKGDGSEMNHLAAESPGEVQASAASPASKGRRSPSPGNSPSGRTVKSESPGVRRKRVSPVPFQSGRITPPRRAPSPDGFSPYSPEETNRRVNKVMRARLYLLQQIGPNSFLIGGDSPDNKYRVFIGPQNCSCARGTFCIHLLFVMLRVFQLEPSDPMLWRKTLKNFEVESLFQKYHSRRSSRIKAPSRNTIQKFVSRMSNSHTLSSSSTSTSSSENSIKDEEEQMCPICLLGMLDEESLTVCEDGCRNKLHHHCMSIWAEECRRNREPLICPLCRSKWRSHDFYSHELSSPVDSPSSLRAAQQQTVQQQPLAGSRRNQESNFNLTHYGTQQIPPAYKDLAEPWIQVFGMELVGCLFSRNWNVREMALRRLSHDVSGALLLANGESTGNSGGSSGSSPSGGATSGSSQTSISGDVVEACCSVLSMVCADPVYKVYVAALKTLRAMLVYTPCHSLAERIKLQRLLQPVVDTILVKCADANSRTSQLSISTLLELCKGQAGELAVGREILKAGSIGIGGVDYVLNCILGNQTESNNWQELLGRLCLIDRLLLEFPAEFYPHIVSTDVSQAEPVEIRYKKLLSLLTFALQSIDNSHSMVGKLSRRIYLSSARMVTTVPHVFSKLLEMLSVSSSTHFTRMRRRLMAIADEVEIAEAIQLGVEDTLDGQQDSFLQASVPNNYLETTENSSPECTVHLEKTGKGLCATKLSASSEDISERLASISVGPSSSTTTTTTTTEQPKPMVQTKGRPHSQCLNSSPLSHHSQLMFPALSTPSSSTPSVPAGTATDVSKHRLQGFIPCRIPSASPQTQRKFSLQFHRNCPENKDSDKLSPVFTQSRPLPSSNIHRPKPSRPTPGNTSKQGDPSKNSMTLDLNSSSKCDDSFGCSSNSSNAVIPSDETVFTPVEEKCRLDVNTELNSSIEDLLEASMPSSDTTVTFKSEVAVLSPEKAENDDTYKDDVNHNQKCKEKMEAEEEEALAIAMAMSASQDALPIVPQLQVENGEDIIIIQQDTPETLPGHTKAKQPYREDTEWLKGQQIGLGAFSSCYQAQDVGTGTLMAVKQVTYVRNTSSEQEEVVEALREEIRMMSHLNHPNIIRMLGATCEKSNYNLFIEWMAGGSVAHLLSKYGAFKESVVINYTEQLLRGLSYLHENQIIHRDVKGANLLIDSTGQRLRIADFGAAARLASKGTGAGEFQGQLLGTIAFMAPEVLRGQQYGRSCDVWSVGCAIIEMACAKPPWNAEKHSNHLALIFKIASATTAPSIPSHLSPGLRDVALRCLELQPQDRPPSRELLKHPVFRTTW

Structure (SMILES): CN(C)CCOc1ccc(-c2nc(-c3ccncc3)c(-c3ccc4c(c3)CC/C4=N\O)[nH]2)cc1
% of control [1]: 85%

Structure (SMILES): Nc1cnc(N2CCc3cc(S(=O)(=O)Nc4c(F)cc(Cl)cc4F)cc(N4CCCC4=O)c32)nc1 [TP-020n]
% of control [2]: 100%

Structure (SMILES): C=CC(=O)Nc1cc(-n2c(=O)ccc3cnc4ccc(-c5ccc(NS(C)(=O)=O)cc5)cc4c32)ccc1C
% of control ([3]; at 1 µM): 93%
% of control ([3]; at 10 µM): 100%

Structure (SMILES): COCC(=O)NC/C=C/c1ccc2ncnc(Nc3ccc(Oc4ccc(C)nc4)c(C)c3)c2c1 [CP-724714]
IC50 [4]: > 10 µM

% of inhibition [5]: -18.4%
Structure (SMILES): CC[C@@H]1[C@H](F)C(=O)N[C@@H]1COc1nccc2cc(C(N)=O)c(OC)cc12 [ZIMLOVISERTIB]

% of control ([6]; at 1 µM): 83%
% of control ([6]; at 5 µM): 86%
Structure (SMILES): C=CC(=O)Nc1cccc(C(=O)Nc2ccc(Nc3cc(-c4[nH]c(SC)nc4C)ccn3)cc2)c1

Structure (SMILES): COc1cc(Nc2nc(C)cc(-c3cnn4nc(OC)ccc34)n2)cc(C(F)(F)F)c1
% of control [7]: 70%
% of control [8]: 81%

Structure (SMILES): O=C(NOC[C@H](O)CO)c1ccc(F)c(F)c1Nc1ccc(I)cc1F
% of control [9]: 100%

Structure (SMILES): CCC(=O)N1CCN(c2ccc(-n3c(=O)ccc4cnc5ccc(-c6cnc7ccccc7c6)cc5c43)cc2C(F)(F)F)CC1
% of control [10]: 77%

% of control [11]: 1.58%
Structure (SMILES): Cn1cc(-n2cnc3c(NCc4nc5cc(Cl)c(Cl)cc5[nH]4)nc(N4CCOCC4)nc32)cn1

Structure (SMILES): Cc1cc(F)c(C(=O)Nc2cccc(-c3nncn3C(C)C)n2)cc1-n1cnc(C2CC2)c1
% of control [12]: 99%

Reference: ChEMBL document CHEMBL5465560, “Selectivity Literature for EUbOPEN Chemogenomic Library” (2024)
